From patent US10010547B2 (CASCADIAN THERAPEUTICS, INC., priority 2014, dated 2018)
Counter-ions that a name gives are not always drawn. Like-named read-outs stand apart in the source and are kept apart here.

Key:
MIA PaCa-2 cells = test: Gemcitabine Combination Cell Assay (Cell Titer Glo); assay type: cell-based; settings: for IC50: Homo sapiens; for 10xLS: approximate concentration of Chk1 inhibitor that results in a 10-fold reduction in the IC50 of gemcitabine alone; for 2xLS: approximate concentration of Chk1 inhibitor that results in a two-fold reduction in the IC50 of gemcitabine alone
Summary of the method: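 MIA PaCa-2 cells were treated 72 h with half-log dilutions of Chk1 inhibitor (top 3000 nM) and gemcitabine (top 100 nM), alone and in full matrix; viability by CellTiter-Glo luminescence. IC50s from four-parameter fit; Chk1 inhibitor concentrations giving two- and ten-fold lowering of gemcitabine IC50 were estimated.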

Chk-1 kinase = Chk-1 kinase (Homo sapiens (Human), UniProt O14757); test: Chk-1 Kinase Inhibiting Activity (33P-ATP filter assay, CHKtide substrate); assay type: biochemical
Summary of the method: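 Full-length N-terminal GST-tagged human Chk-1 from insect cells, 0.5 nM final, with 20 μM peptide substrate and 33P-ATP in HEPES pH 7.5 buffer with 1% DMSO. Reaction ran 120 minutes at room temperature; incorporated radioactivity captured on P81 filters and counted for IC50.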

[1] = Chk1 inhibitor alone, MIA PaCa-2 cells, 72 h, read-out: Chk1 IC50
[2] = against Chk-1 kinase, read-out: IC50
[3] = MIA PaCa-2, 72 h, read-out: Chk1 IC50 (nM)

Sequence of Chk-1 kinase (O14757 whole entry): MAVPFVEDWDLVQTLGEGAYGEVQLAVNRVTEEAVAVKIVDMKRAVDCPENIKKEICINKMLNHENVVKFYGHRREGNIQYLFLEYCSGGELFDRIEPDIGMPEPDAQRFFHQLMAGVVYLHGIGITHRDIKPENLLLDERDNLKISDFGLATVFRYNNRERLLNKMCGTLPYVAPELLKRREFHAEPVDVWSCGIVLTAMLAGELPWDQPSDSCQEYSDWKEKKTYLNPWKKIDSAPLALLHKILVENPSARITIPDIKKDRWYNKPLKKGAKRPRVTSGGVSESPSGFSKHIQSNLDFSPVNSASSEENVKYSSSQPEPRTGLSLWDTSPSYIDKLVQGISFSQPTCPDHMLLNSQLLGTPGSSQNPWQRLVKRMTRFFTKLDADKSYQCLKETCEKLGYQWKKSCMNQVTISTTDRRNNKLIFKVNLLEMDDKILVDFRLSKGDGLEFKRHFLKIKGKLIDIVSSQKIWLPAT

IC50 (MIA PaCa-2 cells; [1]) | IC50 (Chk-1 kinase; [2]) | SMILES | 10xLS (MIA PaCa-2 cells; MIA PaCa-2 cells, 72 h) | 2xLS (MIA PaCa-2 cells; MIA PaCa-2 cells, 72 h) | IC50 (Chk-1 kinase) | IC50 (MIA PaCa-2 cells; [3])
411 nM | 0.33 nM | COc1cc(CNC2CC2)ccc1-c1cc(Nc2cnc(C#N)cn2)n[nH]1 [Example 91, 5-[[5-[4-[(cyclopropylamino)methyl]-2-methoxy-phenyl]-1H-pyrazol-3-yl]amino]pyrazine-2-carbonitrile] | <100 nM | <3 nM | – | –
132 nM | 0.016 nM | COc1cc(N2CCN(C)[C@H](C)C2)ccc1-c1cc(Nc2cnc(C#N)cn2)n[nH]1 [Example 92, 5-[[5-[4-[(3R)-3,4-dimethylpiperazin-1-yl]-2-methoxy-phenyl]-1H-pyrazol-3-yl]amino]pyrazine-2-carbonitrile] | 30 nM | <3 nM | – | –
99 nM | 0.016 nM | CCN1CCN(c2ccc(-c3cc(Nc4cnc(C#N)cn4)n[nH]3)c(OC)c2)C[C@H]1C [Example 93, 5-[[5-[4-[(3R)-4-ethyl-3-methyl-piperazin-1-yl]-2-methoxy-phenyl]-1H-pyrazol-3-yl]amino]pyrazine-2-carbonitrile] | <30 nM | <3 nM | – | –
475 nM | 0.18 nM | COc1cc(O[C@H]2CCN(C(C)C)C2)ccc1-c1cc(Nc2cnc(C#N)cn2)n[nH]1 [Example 94, 5-[[5-[4-[(3S)-1-isopropylpyrrolidin-3-yl]oxy-2-methoxy-phenyl]-1H-pyrazol-3-yl]amino]pyrazine-2-carbonitrile] | 100 nM | 3 nM | – | –
183 nM | 0.15 nM | COc1cc(O[C@@H]2CCN(C(C)C)C2)ccc1-c1cc(Nc2cnc(C#N)cn2)n[nH]1 [Example 95, 5-[[5-[4-[(3R)-1-isopropylpyrrolidin-3-yl]oxy-2-methoxy-phenyl]-1H-pyrazol-3-yl]amino]pyrazine-2-carbonitrile] | <100 nM | <3 nM | – | –
1780 nM | 1.8 nM | CCN1CCC(c2ccc(-c3cc(Nc4cnc(C#N)cn4)n[nH]3)c(OC)c2)C(F)(F)C1 (stereo not shown) [Example 98, 5-[[5-[4-(1-ethyl-3,3-difluoro-4-piperidyl)-2-methoxy-phenyl]-1H-pyrazol-3-yl]amino]pyrazine-2-carbonitrile] | <1000 nM | 10 nM | – | –
233 nM | 0.15 nM | COc1cc(C2CCN(CCO)CC2)ccc1-c1cc(Nc2cnc(C#N)cn2)n[nH]1 [Example 99, 5-[[5-[4-[1-(2-hydroxyethyl)-4-piperidyl]-2-methoxy-phenyl]-1H-pyrazol-3-yl]amino]pyrazine-2-carbonitrile] | 30 nM | <3 nM | – | –
247 nM | 0.053 nM | COc1cc(CN(C)C(C)C)ccc1-c1cc(Nc2cnc(C#N)cn2)n[nH]1 [Example 100, 5-[[5-[4-[[isopropyl(methyl)amino]methyl]-2-methoxy-phenyl]-1H-pyrazol-3-yl]amino]pyrazine-2-carbonitrile] | <100 nM | 3 nM | – | –
199 nM | 0.055 nM | COc1cc(CN2CCCC2)ccc1-c1cc(Nc2cnc(C#N)cn2)n[nH]1 [Example 101, 5-[[5-[2-methoxy-4-(pyrrolidin-1-ylmethyl)phenyl]-1H-pyrazol-3-yl]amino]pyrazine-2-carbonitrile] | <100 nM | 3 nM | – | –
957 nM | 0.16 nM | COc1cc(CN2CCOCC2)ccc1-c1cc(Nc2cnc(C#N)cn2)n[nH]1 [Example 102, 5-[[5-[2-methoxy-4-(morpholinomethyl)phenyl]-1H-pyrazol-3-yl]amino]pyrazine-2-carbonitrile] | 300 nM | 10 nM | – | –
441 nM | 0.17 nM | COc1cc(C2CCN(CCF)CC2)ccc1-c1cc(Nc2cnc(C#N)cn2)n[nH]1 [Example 106, 5-[[5-[4-[1-(2-fluoroethyl)-4-piperidyl]-2-methoxy-phenyl]-1H-pyrazol-3-yl]amino]pyrazine-2-carbonitrile] | 100 nM | 3 nM | – | –
77 nM | 0.043 nM | CCN1CCC(CNc2ccc(-c3cc(Nc4cnc(C#N)cn4)n[nH]3)c(OC)c2)CC1 [Example 108, 5-[[5-[4-[(1-ethyl-4-piperidyl)methylamino]-2-methoxy-phenyl]-1H-pyrazol-3-yl]amino]pyrazine-2-carbonitrile] | 30 nM | <3 nM | – | –
82 nM | 0.087 nM | COc1cc(NCC2CCN(C(C)C)CC2)ccc1-c1cc(Nc2cnc(C#N)cn2)n[nH]1 [Example 109, 5-[[5-[4-[(1-isopropyl-4-piperidyl)methylamino]-2-methoxy-phenyl]-1H-pyrazol-3-yl]amino]pyrazine-2-carbonitrile] | <30 nM | <3 nM | – | –
192 nM | 0.0069 nM | COc1cc(NC2CCN(C)CC2)ccc1-c1cc(Nc2cnc(C#N)cn2)n[nH]1 [Example 110, 5-[[5-[2-methoxy-4-[(1-methyl-4-piperidyl)amino]phenyl]-1H-pyrazol-3-yl]amino]pyrazine-2-carbonitrile] | 100 nM | 3 nM | – | –

SMILES | IC50 (MIA PaCa-2 cells; [1]) | IC50 (Chk-1 kinase; [2]) | 10xLS (MIA PaCa-2 cells; MIA PaCa-2 cells, 72 h) | 2xLS (MIA PaCa-2 cells; MIA PaCa-2 cells, 72 h) | IC50 (Chk-1 kinase) | IC50 (MIA PaCa-2 cells; [3])
COc1cc([C@H]2CCN(C)C[C@@H]2F)ccc1-c1cc(Nc2cnc(C#N)cn2)n[nH]1 [Example 96, 5-[[5-[4-[(3(R,S),4(R,S))-3-fluoro-1-methyl-4-piperidyl]-2-methoxy-phenyl]-1H-pyrazol-3-yl]amino]pyrazine-2-carbonitrile] | 730 nM | – | <300 nM | 10 nM | 0.4 nM | –
COc1cc(C2CCN(C)CC2(F)F)ccc1-c1cc(Nc2cnc(C#N)cn2)n[nH]1 (stereo not shown) [Example 97, 5-[[5-[4-(3,3-Difluoro-1-methyl-4-piperidyl)-2-methoxy-phenyl]-1H-pyrazol-3-yl]amino]pyrazine-2-carbonitrile hydrochloride] | – | 1.1 nM | 300 nM | 10 nM | – | 1500 nM
COc1cc(OC[C@H]2CCCN2C)ccc1-c1cc(Nc2cnc(C#N)cn2)n[nH]1 [Example 103, 5-[[5-[2-methoxy-4-[[(2R)-1-methylpyrrolidin-2-yl]methoxy]phenyl]-1H-pyrazol-3-yl]amino]pyrazine-2-carbonitrile hydrochloride] | – | 0.109 nM | 300 nM | 3 nM | – | 184 nM
COc1cc(OC[C@@H]2CCCN2C)ccc1-c1cc(Nc2cnc(C#N)cn2)n[nH]1 [Example 104, 5-[[5-[2-methoxy-4-[[(2S)-1-methylpyrrolidin-2-yl]methoxy]phenyl]-1H-pyrazol-3-yl]amino]pyrazine-2-carbonitrile hydrochloride] | – | 0.12 nM | 100 nM | 3 nM | – | 214 nM
COc1cc(NCC2CCN(C)CC2)ccc1-c1cc(Nc2cnc(C#N)cn2)n[nH]1 [Example 107, 5-[[5-[2-Methoxy-4-[(1-methyl-4-piperidyl)methylamino]phenyl]-1H-pyrazol-3-yl]amino]pyrazine-2-carbonitrile hydrochloride] | – | 0.081 nM | 100 nM | 3 nM | – | 160 nM
